Data set [1] can be described thus: Liver microsomes in vitro stability (human). It is filed as in vitro ADME. The following applies: read-out: T1/2/min (H). As for the experimental part: (§1) 1. Preparation of Working Solution:
(§2) Microsomes were taken out from the −80° C. refrigerator, rapidly melted in a 37° C. water bath and placed on ice until ready to use. The test article was diluted with DMSO to prepare a 10 mM stock solution, and then diluted with acetonitrile to a 0.5 mM secondary stock solution. […] NADPH was diluted with Buffer C to a working solution of 6 mM for the starter solution. An acetonitrile solution containing an internal standard was prepared as the precipitant, and Verapamil-HCl was chosen as the internal standard at a concentration of 4 ng/ml.
(§3) 2. Experimental Procedure:
(§4) A round-bottom well plate was taken, noted as the reaction plate, and the prepared working solution for each compound was dispensed into the well plate according to the number of replicates and time points (0 h samples were also added to the reaction plate), 30 μL/well; the plate was incubated at 37° C. for 10 min. A separate plate with pointed bottom wells, noted as a precipitation plate, was added with 135 μL precipitant per well; 0 h samples were transferred to the plate after 10 min incubation and 15 μL of starter solution was added; the plate was placed on ice before centrifugation.
(§5) The diluted starter solution was added in sufficient quantity to the dispensing plate to facilitate the multichannel pipette aspiration operation.
(§6) The reaction was carried out on a warm incubation shaker and 15 μL of starter solution/sample is added to the plate using a multichannel pipette. The reaction was mixed with a slight shake to initiate the reaction, which was accurately timed and recorded using a timer. In general, samples with shorter reaction times are initiated late and vice versa early, allowing sufficient time for multiple plate manipulation to terminate the reaction. For example, as for the four experiments of 5, 15, 30, and 60 min, the 60 min experiment was started first, and the 5 min experiment was started later, so as to leave sufficient time for the 5 min group.
(§7) After the reaction time had elapsed, all the solution in the plate was aspirated using the multichannel pipette and added to the precipitation plate to terminate the reaction at that point in time. After all reactions had been terminated, the plates were shaken for ten minutes on a plate shaker at 600 rpm to precipitate the protein. The plate was centrifuged at 4° C. for 15 minutes at maximum rpm. 80 μL of supernatant was taken, 320 μL of pure water was added and mixed for LC-MS analysis.
(Microsomes from liver hold many membrane-bound enzymes, among them those of drug oxidation.)

Data set [2] deals with T1, Wee1 protein (Homo sapiens, UniProt P30291).
T1 construct: purchased Thermo Fisher PR7373A
T1 sequence (P30291 whole entry): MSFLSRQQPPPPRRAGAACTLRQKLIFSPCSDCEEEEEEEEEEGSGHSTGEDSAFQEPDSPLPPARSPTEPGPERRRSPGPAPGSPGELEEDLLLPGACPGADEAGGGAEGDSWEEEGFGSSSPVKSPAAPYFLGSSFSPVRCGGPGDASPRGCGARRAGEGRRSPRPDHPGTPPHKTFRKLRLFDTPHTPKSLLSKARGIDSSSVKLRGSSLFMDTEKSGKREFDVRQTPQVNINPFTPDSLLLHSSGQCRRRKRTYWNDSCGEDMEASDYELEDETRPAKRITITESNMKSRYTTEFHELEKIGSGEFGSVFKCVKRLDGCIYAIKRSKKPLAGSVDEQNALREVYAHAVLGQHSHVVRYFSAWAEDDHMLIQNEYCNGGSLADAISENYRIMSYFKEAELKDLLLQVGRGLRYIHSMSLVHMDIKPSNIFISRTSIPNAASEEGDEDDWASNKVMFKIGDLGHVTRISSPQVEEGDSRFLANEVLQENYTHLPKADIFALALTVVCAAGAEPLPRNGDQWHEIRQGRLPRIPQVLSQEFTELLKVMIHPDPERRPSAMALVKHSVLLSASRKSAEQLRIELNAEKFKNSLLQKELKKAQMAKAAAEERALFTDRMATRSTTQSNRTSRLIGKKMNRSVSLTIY
Nature of the data set: Binding of compound to Wee1 protein and Tracer 178 by TR-FRET (Wee1 kinase inhibitory activity). Conditions: 15 nM WEE1, 50 nM Tracer 178, read-out: IC50 (inhibitory activity against Wee1 kinase). Here is the method:
First, solutions of the compounds in different concentration gradients were prepared. The compounds were dissolved in DMSO and the compounds were diluted 4 folds with a total of 10 dose points and 2 parallel replicates for each concentration.
The IC50 for inhibition of enzyme activity by the compounds was then calculated using GraphPad Prism 6 and fitted with a log (inhibitor) vs. response-Variable slope mode. The fitting equation was: Y=Bottom+(Top−Bottom)/(1+10^((Log IC50−X)*HillSlope)), wherein Y represents the percentage of residual enzyme activity known and X represents the known concentration of compound after the logarithm.
(In general: Time-resolved FRET reads energy transfer from a long-lived donor to a nearby acceptor.)

The nature of data set [3]: Liver microsomes in vitro stability (mouse). It is filed as in vitro ADME. The following applies: read-out: T1/2/min. Here is the method:
as §1, §2, §3, §4, §5, §6, §7

The test system of data set [4] is H1299 cells. Briefly: Anti-proliferative effect on H1299 cells by Cell Titer-Glo. Conditions: Homo sapiens, NCI-H1299, 72 h, 3 days, read-out: H1299 (IC50, inhibition of proliferation in vitro). The class given is cell-based. As for the experimental part:
(§8) Test Example 2: Evaluation of Cell Proliferation Inhibitory Activity
1. Evaluation of the Anti-Proliferative Effect of Compounds on H1299 Cells by the Cell Titer-Glo Method
(§9) Compound solutions of different concentration gradients were prepared. […] The cell growth group without compound was used as a positive control (maximum signal control) and the medium was used as a negative control (minimum signal control), while ensuring that the final level of DMSO in each reaction well was 0.2%. After removing the medium from the 384-well plate, 25 ul of the configured compound at different concentrations was transferred into the well plate and the compound and cells were incubated in the cell incubator at 37° C. with 5% CO2 for 3 days.
The 384-well plates were removed from the cell incubator and allowed to equilibrate for 1h to room temperature. 25 ul of Cell Titer-Glo assay was added to each well, lysed on a shaker for 2 min and then read out (Luminescence) using a BMG PHERAStar after 10 min incubation. Calculate the inhibition rate from the luminescence signal: first calculate the average of the positive control (maximum signal control) and the negative control (minimum signal control).
was used to calculate the rate of inhibition of the cells by different concentrations of the compounds. The IC50 of the compound on cell activity inhibition was calculated by fitting a log(inhibitor) vs. response-Variable slope model to GraphPad Prism 6. The fitted equation was: Y=Bottom+(Top−Bottom)/(1+10^((Log IC50−X)*HillSlope)), where Y represents the rate of inhibition and X represents the concentration of the known compound after Log.
(§10) The results of the in vitro anti-cell proliferation assays of H1299 and MIA Paca-2 for the example compounds according to the method described above are shown in Table 2, wherein the IC50 of each compound was determined and classified according to the description as follows: […]

The nature of data set [5]: Membrane permeability study (Caco-2). The class given is in vitro ADME. The following applies: human; for efflux ratio at 90 min, 10 µM: Caco-2, pH 7.4; for Papp A→B at 90 min, 10 µM / Papp B→A at 90 min, 10 µM: pH 7.4, Caco-2, 10 μM; for Papp A→B at 90 min, 10 µM: apical to basolateral; for Papp B→A at 90 min, 10 µM: basolateral to apical. As for the experimental part:
Caco-2 cells were purchased from the […] (Rockville, MD). The cell culture medium was modified Eagle's medium (MEM) containing 10% inactivated fetal bovine serum and 1% non-essential amino acids.
The cells were incubated for 21-28 days after inoculation for transport experiments and the apparent permeability (Papp) of Lucifer Yellow was used to characterize and verify the compactness of the cell monolayer. […] A 10 μM working solution of the compound to be tested was added to the apical side and basolateral side of Caco-2 and incubated at 37° C. for 90 min. After the incubation, dilute the samples on the apical side and basolateral side, and the concentrations of compounds on the apical and basolateral sides were detected by LC-MS/MS, and the concentrations of the compounds were quantified by standard curve.

Data set [6] has as its system MIA PaCa2 cells. Nature of the data set: Anti-proliferative effect on MIA PaCa2 cells by Cell Titer-Glo. The class given is cell-based. The following applies: Homo sapiens, MIA PaCa-2, 72 h, 3 days, read-out: MIA PaCa 2 (IC50, inhibition of proliferation in vitro). As for the experimental part:
as §8
2. Evaluation of the Anti-Proliferative Effect of Compounds on MIA PaCa2 Cells by the Cell Titer-Glo Method
as §9
The 384-well plates were removed from the cell incubator and allowed to equilibrate for 1 h to room temperature. 25 ul of Cell Titer-Glo assay was added to each well, lysed on a shaker for 2 min and then read out (Luminescence) using a BMG PHERAStar after 10 min incubation. Calculate the inhibition rate from the luminescence signal: first calculate the average of the positive control (maximum signal control) and the negative control (minimum signal control).
was used to calculate the rate of inhibition of the cells by different concentrations of the compounds. The IC50 of the compound on cell activity inhibition was calculated by fitting a log(inhibitor) vs. response-Variable slope model to GraphPad Prism 6. The fitted equation was: Y=Bottom+(Top-Bottom)/(1+10^((Log IC50−X)*HillSlope)), wherein Y represents the rate of inhibition and X represents the concentration of the known compound after Log.
as §10
(In general: ATP-based viability assays read luminescence as a measure of living cells.)

The structures appear in SMILES notation.

With `C=CCn1c(=O)c2cnc(Nc3ccc(OCC)c(CC4C(=O)C5CCN4CC5)c3)nc2n1-c1cccc(N=S(C)(C)=O)n1` (centres unmarked) [Compound 9], the half-life at 1 µM in data set [1] was 2.82 min; in data set [3], 0.78 min. The values for the IC50 in data set [2] and in data set [4] were under 5 nM and 1000 to 2000 nM, respectively.

As for `C=CCn1c(=O)c2cnc(Nc3ccc(CC4C(=O)C5CCN4CC5)cc3)nc2n1-c1cccc(N=S(C)(C)=O)n1` (centres unmarked) [Compound 6], the values for the half-life at 1 µM in data set [1] and in data set [3] were 5.16 min and 5.72 min, respectively. For the same compound, the IC50 is under 5 nM in data set [2] and 100 to 1000 nM in data set [4].

A word on the efflux ratio: it is a quotient of directional permeabilities that is used to spot active efflux. As usually defined, the Papp A→B is the apparent permeability from the apical to the basolateral side of a cell layer. A high value points to ready permeation. By Papp B→A is commonly meant the apparent permeability from the basolateral to the apical side of a cell layer. In the case of `C=CCn1c(=O)c2cnc(Nc3ccc(N4CC5CC(C4)N5C(C)C)cc3)nc2n1-c1cccc(C(C)(C)O)n1` [Compound 42], the efflux ratio at 90 min, 10 µM in data set [5] was 7.99. The Papp A→B at 90 min, 10 µM in data set [5] is 6.22 ×10⁻⁶ cm/s. In data set [5], this compound gave a Papp B→A at 90 min, 10 µM of 49.7 ×10⁻⁶ cm/s. For the same compound, the IC50 lay within 10 to 100 nM in data set [2], 100 to 1000 nM in data set [4] and 100 to 1000 nM in data set [6].

Take `C=CCn1c(=O)c2cnc(Nc3ccc(N4CCN(C5CN6CCC5CC6)CC4)cc3)nc2n1-c1cccc(N=S(C)(C)=O)n1` (centres unmarked) [Compound 11]: the IC50 in data set [2] fell in the range of 5 to 10 nM; in data set [4] it was 100 to 1000 nM; in data set [6], 100 to 1000 nM. The half-life at 1 µM in data set [3] stood at 110 min.

In the case of `C=CCn1c(=O)c2cnc(Nc3ccc(N4C[C@H]5C[C@@H](C4)N5C)cc3)nc2n1-c1cccc(N=S(C)(C)=O)n1` [Compound 39], the IC50 in data set [2] was under 5 nM; in data set [4] it was 100 to 1000 nM; in data set [6], at most 100 nM. Also, the half-life at 1 µM in data set [3] was over 120 min.

Take `C=CCn1c(=O)c2cnc(Nc3ccc(N4C[C@@H]5C[C@H]4CN5C)c(C)c3)nc2n1-c1cccc(C(C)(C)O)n1` [Compound 12]: in data set [5], the efflux ratio at 90 min, 10 µM amounted to 11.8. In data set [5], this compound came in with a Papp A→B at 90 min, 10 µM of 2.84 ×10⁻⁶ cm/s. This compound also registered a basolateral-to-apical permeability (Papp B→A) at 90 min, 10 µM in data set [5] of 33.5 ×10⁻⁶ cm/s. The IC50 in data set [2] lay in the range of 5 to 10 nM; in data set [4], 100 to 1000 nM; in data set [6], 100 to 1000 nM. For the same compound, the half-life at 1 µM in data set [3] was determined as 31.5 min.

`C=CCn1c(=O)c2cnc(Nc3ccc(OC4CN5CCC4CC5)cc3)nc2n1-c1cccc(C(C)(C)O)n1` (centres unmarked) [Compound 4]: the half-life at 1 µM in data set [1] was 22.2 min; in data set [3], 10.1 min. Further, the values for the IC50 in data set [2] and in data set [4] were under 5 nM and 1000 to 2000 nM, respectively.

For `C=CCn1c(=O)c2cnc(Nc3ccc(N4CC5CC(CN(CCF)C5)C4)cc3)nc2n1-c1cccc(C(C)(C)O)n1` [Compound 37], the figures for the IC50 in data set [2], in data set [4] and in data set [6] were 10 to 100 nM, 2000 to 5000 nM and 100 to 1000 nM, respectively. The half-life at 1 µM in data set [3] is 21.7 min.

As to `C=CCn1c(=O)c2cnc(Nc3ccc4c(c3)C(=O)N(C3CCN(C)CC3)C4)nc2n1-c1cccc(N=S(C)(C)=O)n1` [Compound 24], the IC50 in data set [2] lay in the range of 10 to 100 nM; in data set [4], 5000 to 10000 nM; in data set [6] it was 100 to 1000 nM. In addition, in data set [3], the half-life at 1 µM is over 120 min.

`C=CCn1c(=O)c2cnc(Nc3ccc4c(c3)CN(C3CCN(C)CC3)C4=O)nc2n1-c1cccc(N=S(C)(C)=O)n1` [Compound 15]: the IC50 is 5 to 10 nM in data set [2], over 10000 nM in data set [4] and 2000 to 5000 nM in data set [6]. Besides, the half-life at 1 µM in data set [3] is over 120 min.

In the case of `C=CCn1c(=O)c2cnc(Nc3ccc(N4CC5CC(CN(CC(F)(F)F)C5)C4)cc3)nc2n1-c1cccc(C(C)(C)O)n1` [Compound 33], in data set [5], the efflux ratio at 90 min, 10 µM was 0.83; the Papp A→B at 90 min, 10 µM stood at 9.12 ×10⁻⁶ cm/s; the apparent permeability from basolateral to apical (Papp B→A) at 90 min, 10 µM worked out at 7.56 ×10⁻⁶ cm/s. Further, the IC50 in data set [2] fell in the range of 10 to 100 nM. Moreover, the IC50 in data set [4] fell in the range of 1000 to 2000 nM. In addition, the IC50 in data set [6] lay in the range of 2000 to 5000 nM.

On to `C=CCn1c(=O)c2cnc(Nc3cccc(CC4C(=O)C5CCN4CC5)c3)nc2n1-c1cccc(N=S(C)(C)=O)n1` (centres unmarked) [Compound 10], for which the half-life at 1 µM was found to be 8.31 min in data set [1] and 1.34 min in data set [3]. Also, the IC50 in data set [2] was under 5 nM; in data set [4] it was 100 to 1000 nM.

As to `C=CCn1c(=O)c2cnc(Nc3ccc(N4CC5CC(C4)N5C)cc3)nc2n1-c1ccc2c(c1)C(C)(O)CO2` (centres unmarked) [Compound 57], the IC50 was 10 to 100 nM in data set [2], over 10000 nM in data set [4] and over 10000 nM in data set [6]. The half-life at 1 µM in data set [3] was 43.9 min.

For the origin of these results see patent publication US20250034151A1, “WEE1 INHIBITOR, PREPARATION THEREFOR, AND USE THEREOF” (JIANGSU TASLY DIYI PHARMACEUTICAL CO., LTD., priority 2022, published 2025).
